Our source for the IC50 values is US20240124431A1, “2,3-DIHYDRO-4H-BENZO[B][1,4]OXAZIN-4-YL)(5-(PHENYL)-PYRIDIN-3-YL)METHANONE DERIVATIVES AND SIMILAR COMPOUNDS AS CYP11A1 INHIBITORS FOR THE TREATMENT OF PROSTATE CANCER” (ORION CORPORATION, priority 2020, published 2024).

The IC50 is the concentration that gives 50% inhibition.

For this assay, the target named is T1, CYP11A1 (Homo sapiens, UniProt P05108).
T1 construct: endogenous in cells; host or cells: NCI-H295R
T1 sequence (P05108 40-521): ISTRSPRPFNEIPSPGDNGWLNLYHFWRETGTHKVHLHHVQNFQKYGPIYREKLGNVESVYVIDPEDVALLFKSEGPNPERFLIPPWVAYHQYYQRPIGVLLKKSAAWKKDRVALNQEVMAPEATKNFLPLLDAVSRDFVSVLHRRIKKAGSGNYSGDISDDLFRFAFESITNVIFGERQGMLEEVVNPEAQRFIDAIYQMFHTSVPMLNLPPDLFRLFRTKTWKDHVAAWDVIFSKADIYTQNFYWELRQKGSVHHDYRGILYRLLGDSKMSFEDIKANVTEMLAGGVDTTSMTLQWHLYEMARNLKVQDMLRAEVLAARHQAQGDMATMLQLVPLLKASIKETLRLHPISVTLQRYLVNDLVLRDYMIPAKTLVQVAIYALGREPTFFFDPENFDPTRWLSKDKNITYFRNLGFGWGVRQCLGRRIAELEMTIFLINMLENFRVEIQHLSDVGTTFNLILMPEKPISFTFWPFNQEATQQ
Briefly: CYP11A1 inhibition: pregnenolone biosynthesis measured by ELISA in NCI-H295R cells. Particulars: NCI-H295R cells treated for 24 hours, 10 concentrations in duplicates, read-out: IC50 on CYP11A1 inhibition (Group). It counts as cell-based. Here is the method:
The ability of the test compounds to inhibit pregnenolone biosynthesis was measured by enzyme-linked immunosorbent assay (ELISA) detecting pregnenolone (Abnova Pregnenolone ELISA Kit, KA1912). […] To determine the half maximal inhibitory concentration (IC50) of the test compounds on CYP11A1 inhibition, the cells were treated for 24 hours with increasing concentrations of the test compound. The final DMSO concentration was 0.4%. Medium samples were diluted 1:6 and pregnenolone amounts determined with ELISA. Manufacturer's recommended protocols were used and pregnenolone (Sigma-Aldrich, P9129) standards were prepared in cell culture medium. Absorbance (A450) was measured with Envision plate reader (PerkinElmer). All the test compounds were studied at 10 concentrations in duplicates.
A general note: In an ELISA, binding on a coated surface is turned into a signal by an enzyme label.
Regarding `O=C(c1cnnc(-c2ccc(F)cc2)c1)N1CCOc2ccccc21` [Compound 40, (2,3-Dihydro-4H-benzo[b][1,4]oxazin-4-yl)(6-(4-fluorophenyl)pyridazin-4-yl)-methanone], the IC50 is under 50 nM.
To `O=C(c1cncc(-c2ccccc2F)c1)N1CCOc2ccccc21` [Compound 41, (2,3-Dihydro-4H-benzo[b][1,4]oxazin-4-yl)(5-(2-fluorophenyl)pyridin-3-yl)-methanone] belongs under 50 nM; to `O=C(c1cncc(-c2ccc(F)cc2)c1)N1CCCc2ncccc21` [Compound 42, (3,4-Dihydro-1,5-naphthyridin-1(2H)-yl)(5-(4-fluorophenyl)pyridin-3-yl)-methanone], 51 to 200 nM.
To `Cn1cc(-c2cncc(C(=O)N3CCOc4ccccc43)n2)cn1` [Compound 43, (2,3-Dihydro-4H-benzo[b][1,4]oxazin-4-yl)(6-(1-methyl-1H-pyrazol-4-yl)-pyrazin-2-yl)methanone] belongs 51 to 200 nM; to `O=C(c1cncc(-c2ccc(C(F)(F)F)cc2)c1)N1CCOc2ccccc21` [Compound 44, (2,3-Dihydro-4H-benzo[b][1,4]oxazin-4-yl)(5-(4-(trifluoromethyl)phenyl)pyridin-3-yl)methanone], 51 to 200 nM.
To `COc1cc(F)ccc1-c1cncc(C(=O)N2CCOc3ccccc32)c1` [Compound 45, (2,3-Dihydro-4H-benzo[b][1,4]oxazin-4-yl)(5-(4-fluoro-2-methoxyphenyl)-pyridin-3-yl)methanone] belongs 51 to 200 nM.
In the case of `O=S(=O)(c1cncc(-c2ccc(F)cc2)c1)N1CCOc2ccccc21` [Compound 46, 4-((5-(4-Fluorophenyl)pyridin-3-yl)sulfonyl)-3,4-dihydro-2H-benzo[b][1,4]-oxazine], the IC50 was in the range of 51 to 200 nM.
To `O=S(=O)(c1cncc(-c2ccc(F)cc2)c1)N1CCCc2ccccc21` [Compound 47, 1-((5-(4-Fluorophenyl)pyridin-3-yl)sulfonyl)-1,2,3,4-tetrahydroquinoline] belongs 51 to 200 nM.
For `O=C(c1cncc(-c2cccc(C(F)(F)F)c2)c1)N1CCOc2ccccc21` [Compound 48, (2,3-Dihydro-4H-benzo[b][1,4]oxazin-4-yl)(5-(3-(trifluoromethyl)phenyl)pyridin-3-yl)methanone] the value was 51 to 200 nM; for `O=C(c1cncc(-c2ccc(F)nc2)c1)N1CCOc2ccccc21` [Compound 49, (2,3-Dihydro-4H-benzo[b][1,4]oxazin-4-yl)(6′-fluoro-[3,3′-bipyridin]-5-yl)-methanone], 51 to 200 nM; for `COc1cccc(-c2cncc(C(=O)N3CCOc4ccccc43)c2)c1` [Compound 50, (2,3-Dihydro-4H-benzo[b][1,4]oxazin-4-yl)(5-(3-methoxyphenyl)pyridin-3-yl)-methanone], 51 to 200 nM.
Take `C=C(c1ccccc1)c1cncc(C(=O)N2CCCc3ccccc32)c1` [Compound 51, (3,4-Dihydroquinolin-1(2H)-yl)(5-(1-phenylvinyl)pyridin-3-yl)methanone]: the concentration for half-maximal inhibition (IC50) is 51 to 200 nM.
For `O=C(c1cnnc(-c2ccccc2)c1)N1CCCc2ccccc21` [Compound 52, (3,4-Dihydroquinolin-1(2H)-yl)(6-phenylpyridazin-4-yl)methanone] the value was 51 to 200 nM; for `COc1ccc2c(c1)CCCN2C(=O)c1cncc(-c2ccccc2)c1` [Compound 53, (6-Methoxy-3,4-dihydroquinolin-1(2H)-yl)(5-phenylpyridin-3-yl)methanone], 51 to 200 nM; for `O=C(c1cncc(-c2ccc(CO)cc2)c1)N1CCCc2ccccc21` [Compound 54, (3,4-Dihydroquinolin-1(2H)-yl)(5-(4-(hydroxymethyl)phenyl)pyridin-3-yl)-methanone], 51 to 200 nM.
To `O=C(c1cncc(-c2ccc(F)cc2)c1)N1CCOC2CCCCC21` (stereo not drawn) [Compound 55, (5-(4-Fluorophenyl)pyridin-3-yl)(octahydro-4H-benzo[b][1,4]oxazin-4-yl)-methanone] belongs 51 to 200 nM; to `O=C(c1cncc(-c2ccc(F)cc2)c1)N1CCO[C@H]2CCCC[C@@H]21` [Compound 56, (5-(4-Fluorophenyl)pyridin-3-yl)((4aS,8aS)-octahydro-4H-benzo[b][1,4]oxazin-4-yl)methanone], 51 to 200 nM; to `O=C(c1cncc(-c2ccc(F)cc2)c1)N1CCO[C@@H]2CCCC[C@H]21` [Compound 57, (5-(4-Fluorophenyl)pyridin-3-yl)((4aR,8aR)-octahydro-4H-benzo[b][1,4]oxazin-4-yl)methanone], 201 to 2500 nM.
For `O=C(c1cncc(-c2ccc(F)c([N+](=O)[O-])c2)c1)N1CCOc2ccccc21` [Compound 58, (2,3-Dihydro-4H-benzo[b][1,4]oxazin-4-yl)(5-(4-fluoro-3-nitrophenyl)pyridin-3-yl)methanone] the value was 201 to 2500 nM.
On to `COc1cccc2c1CCCN2C(=O)c1cncc(-c2ccccc2)c1` [Compound 59, (5-Methoxy-3,4-dihydroquinolin-1(2H)-yl)(5-phenylpyridin-3-yl)methanone], for which the IC50 was in the range of 201 to 2500 nM.
To `O=C(c1cncc(-c2ccc(F)cc2)c1)N1CCc2ccccc21` [Compound 60, (5-(4-Fluorophenyl)pyridin-3-yl)(indolin-1-yl)methanone] belongs 201 to 2500 nM.
For `O=C(c1cncc(-c2ccccc2)c1)N1CCCc2ncccc21` [Compound 61, (3,4-Dihydro-1,5-naphthyridin-1(2H)-yl)(5-phenylpyridin-3-yl)methanone] the value was 201 to 2500 nM; for `O=C(c1cncc(-c2ccncc2)c1)N1CCCc2ccccc21` [Compound 62, [3,4′-Bipyridin]-5-yl(3,4-dihydroquinolin-1(2H)-yl)methanone], 201 to 2500 nM; for `Cn1nccc1-c1cncc(C(=O)N2CCOc3ccccc32)n1` [Compound 63, (2,3-Dihydro-4H-benzo[b][1,4]oxazin-4-yl)(6-(1-methyl-1H-pyrazol-5-yl)-pyrazin-2-yl)methanone], 201 to 2500 nM.
To `CC1CCc2ccccc2N1C(=O)c1cnnc(-c2ccc(F)cc2)c1` (stereo not drawn) [Compound 64, (6-(4-Fluorophenyl)pyridazin-4-yl)(2-methyl-3,4-dihydroquinolin-1(2H)-yl)-methanone] belongs 201 to 2500 nM; to `O=C(c1cncc(-c2ccc(CO)cc2)c1)N1CCOc2ccccc21` [Compound 65, (2,3-Dihydro-4H-benzo[b][1,4]oxazin-4-yl)(5-(4-(hydroxymethyl)phenyl)pyridin-3-yl)methanone], 201 to 2500 nM; to `O=C(c1cncc(C2=CCOCC2)c1)N1CCOc2ccccc21` [Compound 66, (5-(3,6-Dihydro-2H-pyran-4-yl)pyridin-3-yl)(2,3-dihydro-4H-benzo[b][1,4]-oxazin-4-yl)methanone], 201 to 2500 nM.
For `COC(=O)c1ccc2c(c1)CCCN2C(=O)c1cncc(-c2ccccc2)c1` [Compound 67, Methyl 1-(5-phenylnicotinoyl)-1,2,3,4-tetrahydroquinoline-6-carboxylate], the IC50 is 201 to 2500 nM.
To `CN(C)Cc1ccc(-c2cncc(C(=O)N3CCCc4ccccc43)c2)cc1` [Compound 68, (3,4-Dihydroquinolin-1(2H)-yl)(5-(4-((dimethylamino)methyl)phenyl)pyridin-3-yl)methanone] belongs 201 to 2500 nM; to `COc1ccc2c(c1)N(C(=O)c1cncc(-c3ccccc3)c1)CCC2` [Compound 69, (7-Methoxy-3,4-dihydroquinolin-1(2H)-yl)(5-phenylpyridin-3-yl)methanone], 201 to 2500 nM; to `O=C(c1cncc(-c2cccnc2)c1)N1CCCc2ccccc21` [Compound 70, [3,3′-Bipyridin]-5-yl(3,4-dihydroquinolin-1(2H)-yl)methanone], 201 to 2500 nM.
For `Cc1ccc(-c2cncc(C(=O)N3CCOc4ccccc43)c2)cc1` [Compound 71, (2,3-Dihydro-4H-benzo[b][1,4]oxazin-4-yl)(5-(p-tolyl)pyridin-3-yl)methanone] the value was 201 to 2500 nM; for `O=C(c1cncc(-c2ccc3c(c2)OCC3)c1)N1CCOC2CCCCC21` (stereo not drawn) [Compound 72, (5-(2,3-Dihydrobenzofuran-6-yl)pyridin-3-yl)(octahydro-4H-benzo[b][1,4]-oxazin-4-yl)methanone], 201 to 2500 nM; for `Cn1cc(-c2cncc(C(=O)N3CCOc4ccccc43)c2)cn1` [Compound 73, (2,3-Dihydro-4H-benzo[b][1,4]oxazin-4-yl)(5-(1-methyl-1H-pyrazol-4-yl)-pyridin-3-yl)methanone], 201 to 2500 nM.
To `O=C(c1cncc(N2CCCC2)c1)N1CCOc2ccccc21` [Compound 74, (2,3-Dihydro-4H-benzo[b][1,4]oxazin-4-yl)(5-(pyrrolidin-1-yl)pyridin-3-yl)-methanone] belongs 201 to 2500 nM.
Regarding `CC1(C)C2CN(c3cncc(C(=O)N4CCOc5ccccc54)c3)CC21` (stereo not drawn) [Compound 75], the IC50 is 201 to 2500 nM.
